Source: ChEMBL document CHEMBL2385047, “Synthesis and antifungal evaluation of pentyloxyl-diphenylisoxazoloyl pneumocandins and echinocandins” (Bioorg Med Chem Lett, 2013)
Converted amounts (≈) assume the structure as drawn. Numbered stars: 1 amine (or outer) side, 2 acyl side, 3 side chain; on linkers, the order of the positions; unused ones are H or OH. Bridge positions count the residues as written; N and C are the ends. Square brackets hold non-standard residues; d marks the D form. Peptide text beside a SMILES is read from it. * marks the point of attachment. Orn(4R-OH,5R-OH) = O=C([C@H](C[C@@H](O)[C@@H](O)N[*:3])N[*:1])[*:2]; Tetradecanoyl(10R,12S-Me2) = CC[C@H](C)C[C@H](C)CCCCCCCCC(=O)*; hTyr(3S-OH,4S-OH) = N[C@H](C(=O)O)[C@H](O)[C@@H](O)c1ccc(O)cc1; Pro(3S-OH,4S-Me) = C[C@H]1CN[C@H](C(=O)O)[C@H]1O; X1 = CCCCCOc1ccc(-c2cc(-c3ccc(C(=O)*)cc3)no2)cc1; Gln(3R-OH) = NC(=O)C[C@@H](O)[C@H](N)C(=O)O; Pro(3S-OH) = O=C(O)[C@H]1NCC[C@@H]1O; Hyp = O=C(O)[C@@H]1C[C@@H](O)CN1

What was measured:
[1] = test system: Aspergillus fumigatus; test: Antifungal activity against Aspergillus fumigatus MF5668 caspofungin spontaneous resistance mutant assessed as growth inhibition after 24 hrs by NCCLS broth microdilution method; type: functional; conditions: MF5668, 24 h; for minimal effective concentration: read-out: MEC
[2] = test system: Nakaseomyces glabratus; test: Antifungal activity against wild type Candida glabrata MY1381 assessed as growth inhibition after 24 hrs by NCCLS broth microdilution method; type: functional; conditions: MY1381, 24 h; for MIC: read-out: MIC100
[3] = test system: Candida parapsilosis; test: Antifungal activity against wild type Candida parapsilosis ATCC 22019 assessed as growth inhibition after 24 hrs by NCCLS broth microdilution method; type: functional; conditions: Lodderomyces parapsilosis, ATCC 22019, 24 h; for MIC: read-out: MIC100
[4] = target: T1, Beta-1,3-glucan synthase (Candida albicans, UniProt O13383); test: Inhibition of wild type Candida albicans 1,3-beta-D-glucan synthase using UDP[6,3H]-glucose as substrate after 60 mins by liquid scintillation counting analysis
T1 sequence (O13383 whole entry): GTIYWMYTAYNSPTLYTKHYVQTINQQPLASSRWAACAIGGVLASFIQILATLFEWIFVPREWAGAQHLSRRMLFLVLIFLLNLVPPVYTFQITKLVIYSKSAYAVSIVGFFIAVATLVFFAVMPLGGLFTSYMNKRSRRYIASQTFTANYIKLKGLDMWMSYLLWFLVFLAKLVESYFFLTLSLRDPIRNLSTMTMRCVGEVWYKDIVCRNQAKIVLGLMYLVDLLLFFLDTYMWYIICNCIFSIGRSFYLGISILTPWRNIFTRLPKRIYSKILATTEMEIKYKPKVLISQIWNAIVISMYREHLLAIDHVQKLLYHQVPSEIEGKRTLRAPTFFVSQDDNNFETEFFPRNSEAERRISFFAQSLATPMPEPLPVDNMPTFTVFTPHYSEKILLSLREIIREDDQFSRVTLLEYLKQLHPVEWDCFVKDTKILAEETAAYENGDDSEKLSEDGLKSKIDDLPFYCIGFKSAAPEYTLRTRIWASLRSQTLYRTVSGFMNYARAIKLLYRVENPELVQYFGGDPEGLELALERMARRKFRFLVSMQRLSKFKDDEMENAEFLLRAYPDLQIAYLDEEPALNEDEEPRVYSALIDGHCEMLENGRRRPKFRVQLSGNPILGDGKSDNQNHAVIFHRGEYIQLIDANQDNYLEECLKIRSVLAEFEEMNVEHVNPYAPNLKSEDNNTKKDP

[5] = test system: Clavispora lusitaniae; test: Antifungal activity against wild type Candida lusitaniae MY1396 assessed as growth inhibition after 24 hrs by NCCLS broth microdilution method; type: functional; conditions: MY1396, 24 h; for MIC: read-out: MIC100
[6] = test system: Candida albicans; test: Antifungal activity against Candida albicans NR3 assessed as growth inhibition after 24 hrs by NCCLS broth microdilution method; type: functional; conditions: NR3, 24 h; for MIC: read-out: MIC100
[7] = test system: Meyerozyma guilliermondii; test: Antifungal activity against wild type Candida guilliermondii CLY308 assessed as growth inhibition after 24 hrs by NCCLS broth microdilution method; type: functional; conditions: CLY308, 24 h; for MIC: read-out: MIC100
[8] = test system: Escherichia coli; test: Antibacterial activity against Escherichia coli ATCC 25922 assessed as growth inhibition after 24 hrs by NCCLS broth microdilution method; type: functional; conditions: ATCC 25922, 24 h, read-out: MIC100
[9] = test system: Staphylococcus aureus; test: Antibacterial activity against methicillin-sensitive Staphylococcus aureus MB2865 assessed as growth inhibition after 24 hrs by NCCLS broth microdilution method; type: functional; conditions: MB2865, 24 h, read-out: MIC100
[10] = test system: Cryptococcus neoformans; test: Antifungal activity against capsular wild type Cryptococcus neoformans MY2061 assessed as growth inhibition after 24 hrs by NCCLS broth microdilution method; type: functional; conditions: MY2061, 24 h, read-out: MIC100
[11] = test system: Candida albicans; test: Antifungal activity against wild type Candida albicans MY1055 assessed as growth inhibition after 24 hrs by NCCLS broth microdilution method; type: functional; conditions: MY1055, 24 h; for MIC: read-out: MIC100
[12] = test system: Candida albicans; test: Antifungal activity against wild type Candida albicans CAI4 assessed as growth inhibition after 24 hrs by NCCLS broth microdilution method; type: functional; conditions: CAI4, 24 h; for MIC: read-out: MIC100
[13] = test system: Candida albicans; test: Antifungal activity against Candida albicans CAI4-R1 assessed as growth inhibition after 24 hrs by NCCLS broth microdilution method; type: functional; conditions: CAI4-R1, 24 h; for MIC: read-out: MIC100
[14] = test system: Candida albicans; test: Antifungal activity against wild type Candida albicans MY1055 assessed as growth inhibition after 24 hrs by NCCLS broth microdilution method in presence of human serum; type: functional; conditions: MY1055, 24 h; for MIC: read-out: MIC100
[15] = test system: Pichia kudriavzevii; test: Antifungal activity against wild type Candida krusei CLY549 assessed as growth inhibition after 24 hrs by NCCLS broth microdilution method; type: functional; conditions: CLY549, 24 h; for MIC: read-out: MIC100
[16] = test system: Candida albicans; test: Antifungal activity against Candida albicans MY1055 infected in DBA/2 mouse assessed as reduction of log CFU in kidney administered 30 mins as ip tid post infection measured after 24 hrs; type: functional

SMILES	MIC80 [1] [µg/mL]	minimal effective concentration [1] [µg/mL]	MIC [2] [µg/mL]	MIC80 [3] [µg/mL]	MIC [3] [µg/mL]	MIC80 [5] [µg/mL]	MIC [5] [µg/mL]	MIC [6] [µg/mL]	MIC80 [7] [µg/mL]	MIC [7] [µg/mL]	MIC [8] [µg/mL]	MIC [9] [µg/mL]	MIC [10] [µg/mL]	MIC80 [11] [µg/mL]	MIC [11] [µg/mL]	MIC80 [12] [µg/mL]	MIC [12] [µg/mL]	MIC80 [13] [µg/mL]	MIC [13] [µg/mL]	MIC80 [14] [µg/mL]	also measured
CCCCCOc1ccc(-c2cc(-c3ccc(C(=O)N[C@H]4C[C@@H](O)[C@@H](O)NC(=O)[C@@H]5[C@@H](O)[C@@H](C)CN5C(=O)[C@H]([C@@H](C)O)NC(=O)[C@H]([C@H](O)[C@@H](O)c5ccc(O)cc5)NC(=O)[C@@H]5C[C@@H](O)CN5C(=O)[C@H]([C@@H](C)O)NC4=O)cc3)no2)cc1 (X1-[Orn(4R-OH,5R-OH)]T[Hyp][hTyr(3S-OH,4S-OH)]T[Pro(3S-OH,4S-Me)]; lactam 1-C)	< 0.03	> 32	1 (≈ 0.884 µM)	4 (≈ 3.54 µM)	32 (≈ 28.3 µM)	0.125 (≈ 0.111 µM)	1 (≈ 0.884 µM)	16 (≈ 14.1 µM)	2 (≈ 1.77 µM)	4 (≈ 3.54 µM)	> 32	> 32	> 32	0.06 (≈ 0.053 µM)	0.5 (≈ 0.442 µM)	< 0.03	0.5 (≈ 0.442 µM)	1 (≈ 0.884 µM)	8 (≈ 7.07 µM)	0.5	MIC80 [2]: 0.25 µg/mL (≈ 0.221 µM); IC50 [4]: 4.4 nM; MIC80 [6]: 4 µg/mL (≈ 3.54 µM); MIC [14]: 2 µg/mL; MIC80 [15]: 0.5 µg/mL (≈ 0.442 µM); MIC [15]: 1 µg/mL (≈ 0.884 µM)
CCCCCOc1ccc(-c2cc(-c3ccc(C(=O)N[C@H]4C[C@@H](O)[C@@H](O)NC(=O)[C@@H]5[C@@H](O)[C@@H](C)CN5C(=O)[C@H]([C@H](O)CC(N)=O)NC(=O)[C@H]([C@H](O)[C@@H](O)c5ccc(O)cc5)NC(=O)[C@@H]5C[C@@H](O)CN5C(=O)[C@H]([C@@H](C)O)NC4=O)cc3)no2)cc1 (X1-[Orn(4R-OH,5R-OH)]T[Hyp][hTyr(3S-OH,4S-OH)][Gln(3R-OH)][Pro(3S-OH,4S-Me)]; lactam 1-C)	< 0.03	> 32	0.25 (≈ 0.213 µM)	2 (≈ 1.7 µM)	32 (≈ 27.3 µM)	< 0.03	0.125 (≈ 0.106 µM)	4 (≈ 3.41 µM)	0.5 (≈ 0.426 µM)	2 (≈ 1.7 µM)	> 32	> 32	> 32	< 0.03	0.06 (≈ 0.0511 µM)	< 0.03	0.06 (≈ 0.0511 µM)	0.5 (≈ 0.426 µM)	2 (≈ 1.7 µM)	0.25	ED90 [16]: 0.12 mg/kg/day; ED99 [16]: 0.82 mg/kg/day; MIC80 [2]: 0.06 µg/mL (≈ 0.0511 µM); IC50 [4]: 35 nM; MIC80 [6]: 2 µg/mL (≈ 1.7 µM); MIC [14]: 1 µg/mL; MIC80 [15]: 0.125 µg/mL (≈ 0.106 µM); MIC [15]: 1 µg/mL (≈ 0.852 µM)
CC[C@H](C)C[C@H](C)CCCCCCCCC(=O)N[C@H]1C[C@@H](O)[C@@H](O)NC(=O)[C@@H]2[C@@H](O)CCN2C(=O)[C@H]([C@H](O)CC(N)=O)NC(=O)[C@H]([C@H](O)[C@@H](O)c2ccc(O)cc2)NC(=O)[C@@H]2C[C@@H](O)CN2C(=O)[C@H]([C@@H](C)O)NC1=O ({Tetradecanoyl(10R,12S-Me2)}-[Orn(4R-OH,5R-OH)]T[Hyp][hTyr(3S-OH,4S-OH)][Gln(3R-OH)][Pro(3S-OH)]; lactam 1-C)	4 (≈ 3.76 µM)	> 32	4 (≈ 3.76 µM)	8 (≈ 7.51 µM)	> 32	1 (≈ 0.939 µM)	4 (≈ 3.76 µM)	> 32	4 (≈ 3.76 µM)	> 32	> 32	> 32	> 32	0.125 (≈ 0.117 µM)	0.5 (≈ 0.469 µM)	< 0.03	0.5 (≈ 0.469 µM)	16 (≈ 15 µM)	32 (≈ 30 µM)	16	ED90 [16]: 2.71 mg/kg/day; ED99 [16]: 13 mg/kg/day; MIC [14]: 32 µg/mL; MIC80 [15]: 8 µg/mL (≈ 7.51 µM); MIC [15]: 32 µg/mL (≈ 30 µM)
CC[C@H](C)C[C@H](C)CCCCCCCCC(=O)N[C@H]1C[C@@H](O)[C@@H](O)NC(=O)[C@@H]2[C@@H](O)[C@@H](C)CN2C(=O)[C@H]([C@H](O)CC(N)=O)NC(=O)[C@H]([C@H](O)[C@@H](O)c2ccc(O)cc2)NC(=O)[C@@H]2C[C@@H](O)CN2C(=O)[C@H]([C@@H](C)O)NC1=O ({Tetradecanoyl(10R,12S-Me2)}-[Orn(4R-OH,5R-OH)]T[Hyp][hTyr(3S-OH,4S-OH)][Gln(3R-OH)][Pro(3S-OH,4S-Me)]; lactam 1-C)	4 (≈ 3.71 µM)	> 32	4 (≈ 3.71 µM)	8 (≈ 7.41 µM)	> 32	1 (≈ 0.927 µM)	4 (≈ 3.71 µM)	> 32	4 (≈ 3.71 µM)	32 (≈ 29.7 µM)	> 32	> 32	> 32	0.125 (≈ 0.116 µM)	0.5 (≈ 0.463 µM)	< 0.03	0.5 (≈ 0.463 µM)	8 (≈ 7.41 µM)	16 (≈ 14.8 µM)	16	ED90 [16]: 1.15 mg/kg/day; ED99 [16]: 6.77 mg/kg/day; MIC80 [2]: 2 µg/mL (≈ 1.85 µM); IC50 [4]: 17.6 nM; MIC80 [6]: 32 µg/mL (≈ 29.7 µM); MIC [14]: 32 µg/mL; MIC80 [15]: 4 µg/mL (≈ 3.71 µM); MIC [15]: 8 µg/mL (≈ 7.41 µM)
